From US20250360185A1, “COMPOSITIONS COMPRISING PEDF-DERIVED SHORT PEPTIDES FOR THE TREATMENT OF DRY EYE DISEASES” (BRIM Biotechnology, Inc., priority 2022, published 2025)
Entries after “also recorded” stand apart in the source; their conditions may differ.

Assays:
subjects with DED [1] = assay: Corneal damage repair assessed with fluorescein staining, clinical study; assay type: in vivo, human
Procedure: (§1) A multi-center, randomized, double masked, placebo controlled clinical study was conducted to assess the safety and efficacy of BRM421 ophthalmic solution (OS) in subjects with DED using a controlled adverse environment (CAE®) model (Ora, Inc., Andover, MA, USA). CAE® uses controlled ocular surface stress to exacerbate the signs and symptoms of DED in a safe and controllable manner.
(§2) During the first visit (Day-7±1), the subjects were screened, evaluated before CAE®, exposed to CAE®, evaluated after CAE®, and started with the placebo run-in period (7±1 days). During the 7-day study run-in period (for the purpose of subject selection) prior to randomization, all subjects received Placebo OS bilaterally, three times daily (TID). During the second visit, subjects were evaluated before CAE®, exposed to CAE®, and evaluated after CAE®. These evaluations formed the baseline measurements. The subjects were then randomized into two groups to receive either BRM421 ophthalmic solution (OS) or Placebo OS (Vehicle) bilaterally three times daily (TID) for 14 days from Visit 2 to Visit 4.
Severe dry eye cases can lead to cornea damages, which can be assessed with fluorescein staining. PDSP of the invention can treat DED. In addition, these PDSP can also repair corneal damages. […] The selective efficacies of BRM421 treatment in cataract patients are unexpected.

subjects with DED [2] = assay: Visual analog scale (VAS) ocular symptom ratings, clinical study with CAE model; assay type: in vivo, human; settings: for VAS Burning/Stinging Change from Baseline, ANCOVA LS Mean Difference (SE), BRM421 OS − Placebo / VAS Burning/Stinging Change from Baseline, Two-Sample t-test Sample Mean Difference (SE), BRM421 OS − Placebo / VAS Eye Dryness Change from Baseline, ANCOVA LS Mean Difference (SE), BRM421 OS − Placebo / VAS Eye Dryness Change from Baseline, Two-Sample t-test Sample Mean Difference (SE), BRM421 OS − Placebo / VAS Photophobia Change from Baseline, ANCOVA LS Mean Difference (SE), BRM421 OS − Placebo / VAS Photophobia Change from Baseline, Two-Sample t-test Sample Mean Difference (SE), BRM421 OS − Placebo / VAS Burning/Stinging Change from Baseline, ANCOVA LS Mean (SE) / VAS Eye Dryness Change from Baseline, ANCOVA LS Mean (SE) / VAS Photophobia Change from Baseline, ANCOVA LS Mean (SE) / VAS Burning/Stinging Change from Baseline, Mean (SD) / VAS Eye Dryness Change from Baseline, Mean (SD) / VAS Photophobia Change from Baseline, Mean (SD): ITT; for VAS Burning/Stinging Change from Baseline, ANCOVA LS Mean (SE) / VAS Eye Dryness Change from Baseline, ANCOVA LS Mean (SE) / VAS Photophobia Change from Baseline, ANCOVA LS Mean (SE) / VAS Burning/Stinging Change from Baseline, Mean (SD) / VAS Eye Dryness Change from Baseline, Mean (SD) / VAS Photophobia Change from Baseline, Mean (SD): baseline last Pre-CAE measure; for VAS Burning/Stinging Change from Baseline, Mean (SD) / VAS Eye Dryness Change from Baseline, Mean (SD) / VAS Photophobia Change from Baseline, Mean (SD): 0-100 mm line
Procedure: as §1, §2
During these visits, subjects were evaluated for symptom efficacy. Specifically, visual analog scale (VAS) was measured by asking subjects to rate each ocular symptom due to ocular dryness. Symptoms assessed include burning/stinging, itching, foreign body sensation, blurred vision, eye dryness, photophobia, and pain.

[3] = Visit 3, post-CAE evaluations as baselines

Sequence: SLGAEQRTESIIHRALYYDLISSPDIHGT (listed as Homo sapiens) [BRM421, PEDF-derived short peptide, 29mer, residues 93-121; tested as BRM421 ophthalmic solution (OS)]
- Corneal damage repair compared to placebo (FIG. 5D) (subjects with DED [1]; patients with cataract and surgery): slight improvements
- Corneal damage repair compared to placebo (FIG. 5C) (subjects with DED [1]; patients with cataract but without surgery): significant improvements; also recorded: more significant
- Corneal damage repair compared to placebo (FIG. 5B) (subjects with DED [1]; subjects with cataract): significant improvements
- Corneal damage repair (FIG. 5A) (subjects with DED [1]; subjects without cataract): did not show significant improvements
- VAS burning/stinging compared to placebo (FIG. 4C, FIG. 4D) (subjects with DED [2]; DED and cataract, with or without cataract surgery): significant improvements
- VAS burning/stinging, subjects with cataract surgery compared to subjects without cataract surgery (subjects with DED [2]; FIG. 4D versus FIG. 4C): more improvements
- VAS Burning/Stinging Change from Baseline, ANCOVA LS Mean Difference (SE), BRM421 OS − Placebo (subjects with DED [2]; Visit 3 (Day 8)): −6.8 (2.31) mm
- VAS Burning/Stinging Change from Baseline, Two-Sample t-test Sample Mean Difference (SE), BRM421 OS − Placebo (subjects with DED [2]; Visit 3 (Day 8)): −5.9 (2.58) mm
- VAS Eye Dryness Change from Baseline, ANCOVA LS Mean Difference (SE), BRM421 OS − Placebo (subjects with DED [2]; Visit 3 (Day 8)): −5.3 (2.33) mm
- VAS Eye Dryness Change from Baseline, Two-Sample t-test Sample Mean Difference (SE), BRM421 OS − Placebo (subjects with DED [2]; Visit 3 (Day 8)): −4.7 (2.53) mm
- VAS Photophobia Change from Baseline, ANCOVA LS Mean Difference (SE), BRM421 OS − Placebo (subjects with DED [2]; Visit 3 (Day 8)): −4.5 (2.19) mm
- VAS Photophobia Change from Baseline, Two-Sample t-test Sample Mean Difference (SE), BRM421 OS − Placebo (subjects with DED [2]; Visit 3 (Day 8)): −4.2 (2.33) mm
- VAS Burning/Stinging Change from Baseline, ANCOVA LS Mean (SE) (subjects with DED [2]; Visit 3 (Day 8)): −9.8 (1.67) mm
- VAS Eye Dryness Change from Baseline, ANCOVA LS Mean (SE) (subjects with DED [2]; Visit 3 (Day 8)): −9.4 (1.69) mm
- VAS Photophobia Change from Baseline, ANCOVA LS Mean (SE) (subjects with DED [2]; Visit 3 (Day 8)): −6.2 (1.59) mm
- VAS Burning/Stinging Change from Baseline, Mean (SD) (subjects with DED [2]; Visit 3 (Day 8)): −8.8 (20.35) mm
- VAS Eye Dryness Change from Baseline, Mean (SD) (subjects with DED [2]; Visit 3 (Day 8)): −8.4 (19.22) mm
- VAS Photophobia Change from Baseline, Mean (SD) (subjects with DED [2]; Visit 3 (Day 8)): −5.6 (15.49) mm
- Mean changes from baseline in burning/stinging, eye dryness and photophobia compared to placebo (subjects with DED [2]; Visit 3, ITT Population, FIG. 2A): significant difference
- VAS burning/stinging relative to placebo (FIG. 2B) (subjects with DED [2]; [3]): significant improvement
- VAS dryness relative to placebo (FIG. 2B) (subjects with DED [2]; [3]): less significant improvement
- VAS dryness and VAS burning/stinging relative to placebo (FIG. 2B) (subjects with DED [2]; Visit 3, pre-CAE evaluations as baselines): significant improvements
- VAS Burning/Stinging Change from Baseline, ANCOVA LS Mean Difference (SE), BRM421 OS − Placebo (subjects with DED [2]; Visit 4 (Day 15)): −3.8 (2.58) mm
- VAS Burning/Stinging Change from Baseline, Two-Sample t-test Sample Mean Difference (SE), BRM421 OS − Placebo (subjects with DED [2]; Visit 4 (Day 15)): −2.9 (2.85) mm
- VAS Eye Dryness Change from Baseline, ANCOVA LS Mean Difference (SE), BRM421 OS − Placebo (subjects with DED [2]; Visit 4 (Day 15)): 0.8 (2.66) mm
- VAS Eye Dryness Change from Baseline, Two-Sample t-test Sample Mean Difference (SE), BRM421 OS − Placebo (subjects with DED [2]; Visit 4 (Day 15)): 1.2 (2.80) mm
- VAS Photophobia Change from Baseline, ANCOVA LS Mean Difference (SE), BRM421 OS − Placebo (subjects with DED [2]; Visit 4 (Day 15)): −3.5 (2.26) mm
- VAS Photophobia Change from Baseline, Two-Sample t-test Sample Mean Difference (SE), BRM421 OS − Placebo (subjects with DED [2]; Visit 4 (Day 15)): −3.2 (2.40) mm
- VAS Burning/Stinging Change from Baseline, ANCOVA LS Mean (SE) (subjects with DED [2]; Visit 4 (Day 15)): −10.0 (1.86) mm
- VAS Eye Dryness Change from Baseline, ANCOVA LS Mean (SE) (subjects with DED [2]; Visit 4 (Day 15)): −9.2 (1.92) mm
- VAS Photophobia Change from Baseline, ANCOVA LS Mean (SE) (subjects with DED [2]; Visit 4 (Day 15)): −7.8 (1.63) mm
- VAS Burning/Stinging Change from Baseline, Mean (SD) (subjects with DED [2]; Visit 4 (Day 15)): −9.0 (21.26) mm
- VAS Eye Dryness Change from Baseline, Mean (SD) (subjects with DED [2]; Visit 4 (Day 15)): −8.4 (21.48) mm
- VAS Photophobia Change from Baseline, Mean (SD) (subjects with DED [2]; Visit 4 (Day 15)): −7.3 (16.50) mm
- VAS dryness, burning/stinging and photophobia versus baseline (FIG. 2A) (subjects with DED [2]; Visits 3 and 4 relative to Visit 2 pre-CAE baseline): showed improvements over the baseline
